Patent publication US8188101B2 (AstraZeneca AB, priority 2008, dated 2012)

System: Aβ42 release
Test: Aβ release in cells stably expressing APPswe, Meso Scale Discovery electrochemiluminescence assay
Assay type: cell-based, Human
Settings: Homo sapiens, SH-SY5Y, HEK or SH-SY5Y cells stably expressing APPswe, 4-6 hours incubation with test compound
Procedure: The level of activity of the compounds on Aβ release was tested using the following method:
Compounds were diluted in 100% DMSO and stored at […] prior to use. Human Embryonic Kidney (HEK) or Human Neuroblastoma (SH-SY5Y) cell lines stably expressing APP with the Swedish mutation (APPswe) were cultured using Dulbecco's Modified Eagles medium (DMEM) supplied with […] glucose, Na-pyruvate and GlutaMAX with 10% FBS, 100 U/ml penicillin-streptomycin (PEST) respectively, 1× non-essential amino acids (NEAA), […] Hepes, 100 μg/ml Zeocine. Cells at about 80% confluence were washed with PBS, detached from culture flasks using 1× Trypsin/EDTA diluted in PBS, re-suspended in cell media and plated in 384-well poly-d-lysine coated cell culture plates at about 10000-15000 cells/well, in 25 μL cell media. Optionally, cryo-preserved cells (frozen and stored at −140° C. in 90% cell media and 10% DMSO) were thawed, washed and plated as above. Next the cells were incubated for 15-24 h at 37° C. and 5% CO2, after which cell medium was changed. Fresh medium containing test compound diluted ×200 from prepared compound plate was added to the cells before further incubation for 4-6 hours at 37° C. and 5% CO2. After incubation with test compound the amount of Aβ peptides, including Aβ42, Aβ40, Aβ39, Aβ38 and Aβ37, secreted to the cell medium was analyzed using the electrochemiluminescence assay technology from Meso Scale Discovery Technology, in combination with specific antibodies raised against the different Aβ peptides. Potential cytotoxic effects of the compounds were usually assayed by measuring the ATP content (ViaLight) from cell lysate.

Row | IC50 [µM] | SMILES
1 | 0.126 | CCCN1CCc2nc(Nc3ccc(-c4cnco4)cc3)nc(N(CCO)c3ccccc3)c2C1 [Example 14, 2-((2-(4-(Oxazol-5-yl)phenylamino)-6-propyl-5,6,7,8-tetrahydropyrido[4,3-d]pyrimidin-4-yl)(phenyl)amino)ethanol]
2 | 0.398 | COc1cccc(Cc2nc(Nc3ccc(-n4ccnc4C)cc3)nc3c2CN(CCO)CC3)c1 [Example 57, 2-(4-(3-Methoxybenzyl)-2-(4-(2-methyl-1H-imidazol-1-yl)phenylamino)-7,8-dihydropyrido[4,3-d]pyrimidin-6(5H)-yl)ethanol]
3 | 3.16 | CC(=O)N1CCc2nc(Nc3ccc(-c4cnco4)cc3)nc(NC3(CO)CCCC3)c2C1 [Example 35, 1-(4-(1-(Hydroxymethyl)cyclopentylamino)-2-(4-(oxazol-5-yl)phenylamino)-7,8-dihydropyrido[4,3-d]pyrimidin-6(5H)-yl)ethanone]
4 | 0.501 | Cc1nccn1-c1ccc(Nc2nc3c(c(N[C@@H]4CC5CCC4C5)n2)CN(C)CC3)cc1 (stereo partly drawn) [Example 10, N4-((2R)-bicyclo[2.2.1]heptan-2-yl)-6-methyl-N2-(4-(2-methyl-1H-imidazol-1-yl)phenyl)-5,6,7,8-tetrahydropyrido[4,3-d]pyrimidine-2,4-diamine]
5 | 0.631 | CC(=O)N1CCc2nc(Nc3ccc(-c4cnco4)cc3)nc(N(C)c3ccc(F)cc3)c2C1 [Example 89, 1-(4-((4-Fluorophenyl)(methyl)amino)-2-(4-(oxazol-5-yl)phenylamino)-7,8-dihydropyrido[4,3-d]pyrimidin-6(5H)-yl)ethanone]
6 | 0.2 | COc1cc(Nc2nc3c(c(C(C)n4nc(C)cc4C)n2)COCC3)ccc1-n1cnc(C)c1 (centres unmarked) [Example 104, 4-(1-(3,5-Dimethyl-1H-pyrazol-1-yl)ethyl)-N-(3-methoxy-4-(4-methyl-1H-imidazol-1-yl)phenyl)-7,8-dihydro-5H-pyrano[4,3-d]pyrimidin-2-amine]
7 | 0.251 | Cc1nccn1-c1ccc(Nc2nc(CCc3cccc(F)c3)c3c(n2)CCN(CCO)C3)cc1 [Example 49, 2-(4-(3-Fluorophenethyl)-2-(4-(2-methyl-1H-imidazol-1-yl)phenylamino)-7,8-dihydropyrido[4,3-d]pyrimidin-6(5H)-yl)ethanol]
8 | 1 | OCCN(c1ccccc1)c1nc(Nc2ccc(-c3cnco3)cc2)nc2c1CNCC2 [Example 1, 2-((2-(4-(Oxazol-5-yl)phenylamino)-5,6,7,8-tetrahydropyrido[4,3-d]pyrimidin-4-yl)(phenyl)amino)ethanol]
9 | 0.02 | COc1cc(Nc2nc3c(c(Cc4ccccc4)n2)CN(C)CC3)ccc1-n1cnc(C)c1 [Example 68, 4-Benzyl-N-(3-methoxy-4-(4-methyl-1H-imidazol-1-yl)phenyl)-6-methyl-5,6,7,8-tetrahydropyrido[4,3-d]pyrimidin-2-amine]
10 | 0.501 | COc1cc(Nc2nc3c(c(C(C)n4nc(C)cc4C)n2)CN(C(C)=O)CC3)ccc1-n1cnc(C)c1 (centres unmarked) [Example 108, 1-(4-(1-(3,5-Dimethyl-1H-pyrazol-1-yl)ethyl)-2-(3-methoxy-4-(4-methyl-1H-imidazol-1-yl)phenylamino)-7,8-dihydropyrido[4,3-d]pyrimidin-6(5H)-yl)ethanone]
11 | 0.794 | CC(=O)N1CCc2nc(Nc3ccc(-n4ccnc4C)cc3)nc(Cc3ccccc3F)c2C1 [Example 98, 1-(4-(2-Fluorobenzyl)-2-(4-(2-methyl-1H-imidazol-1-yl)phenylamino)-7,8-dihydropyrido[4,3-d]pyrimidin-6(5H)-yl)ethanone]
12 | 0.0158 | COc1cc(Nc2nc3c(c(Cc4ccccc4)n2)CN(CC#N)CC3)ccc1-n1cnc(C)c1 [Example 105, 2-(4-Benzyl-2-(3-methoxy-4-(4-methyl-1H-imidazol-1-yl)phenylamino)-7,8-dihydropyrido[4,3-d]pyrimidin-6(5H)-yl)acetonitrile]
13 | 1.26 | Cc1nccn1-c1ccc(Nc2nc3c(c(NCC4CCOCC4)n2)CN(C)CC3)cc1 [Example 79, 6-Methyl-N2-(4-(2-methyl-1H-imidazol-1-yl)phenyl)-N4-((tetrahydro-2H-pyran-4-yl)methyl)-5,6,7,8-tetrahydropyrido[4,3-d]pyrimidine-2,4-diamine]
14 | 2.51 | CC(=O)N1CCc2nc(Nc3ccc(-c4cnco4)cc3)nc(N(C)Cc3ccccc3CO)c2C1 [Example 91, 1-(4-((2-(Hydroxymethyl)benzyl)(methyl)amino)-2-(4-(oxazol-5-yl)phenylamino)-7,8-dihydropyrido[4,3-d]pyrimidin-6(5H)-yl)ethanone]
15 | 0.251 | Cc1nccn1-c1ccc(Nc2nc(CCc3cccc(F)c3)c3c(n2)CCN(C)C3)cc1 [Example 51, 4-(3-Fluorophenethyl)-6-methyl-N-(4-(2-methyl-1H-imidazol-1-yl)phenyl)-5,6,7,8-tetrahydropyrido[4,3-d]pyrimidin-2-amine]
16 | 0.0631 | COc1cccc(Cc2nc(Nc3ccc(-n4cnc(C)c4)c(OC)c3)nc3c2CN(C(C)=O)CC3)c1 [Example 96, 1-(2-(3-Methoxy-4-(4-methyl-1H-imidazol-1-yl)phenylamino)-4-(3-methoxybenzyl)-7,8-dihydropyrido[4,3-d]pyrimidin-6(5H)-yl)ethanone]
17 | 0.0398 | COc1cccc(Cc2nc(Nc3ccc(-n4cnc(C)c4)c(OC)c3)nc3c2CN(C)CC3)c1 [Example 95, N-(3-Methoxy-4-(4-methyl-1H-imidazol-1-yl)phenyl)-4-(3-methoxybenzyl)-6-methyl-5,6,7,8-tetrahydropyrido[4,3-d]pyrimidin-2-amine]
18 | 0.316 | CCN(CC1CCCO1)c1nc(Nc2ccc(-c3cnco3)cc2)nc2c1CN(C)CC2 (centres unmarked) [Example 82, N4-Ethyl-6-methyl-N2-(4-(oxazol-5-yl)phenyl)-N4-((tetrahydrofuran-2-yl)methyl)-5,6,7,8-tetrahydropyrido[4,3-d]pyrimidine-2,4-diamine]
19 | 5.01 | CC(=O)N1CCc2nc(Nc3ccc(-c4cnco4)cc3)nc(N3CCCCC3CO)c2C1 (centres unmarked) [Example 94, 1-(4-(2-(Hydroxymethyl)piperidin-1-yl)-2-(4-(oxazol-5-yl)phenylamino)-7,8-dihydropyrido[4,3-d]pyrimidin-6(5H)-yl)ethanone]
20 | 0.398 | Cc1nccn1-c1ccc(Nc2nc3c(c(Cc4ccccc4F)n2)CN(CCO)CC3)cc1 [Example 56, 2-(4-(2-Fluorobenzyl)-2-(4-(2-methyl-1H-imidazol-1-yl)phenylamino)-7,8-dihydropyrido[4,3-d]pyrimidin-6(5H)-yl)ethanol]
21 | 50.1 | CC(=O)N1CCc2nc(Nc3ccc(-n4ccnc4C)cc3)nc(CC3CCOCC3)c2C1 [Example 63, 1-(2-(4-(2-Methyl-1H-imidazol-1-yl)phenylamino)-4-((tetrahydro-2H-pyran-4-yl)methyl)-7,8-dihydropyrido[4,3-d]pyrimidin-6(5H)-yl)ethanone]
22 | 0.398 | CCC(=O)N1CCc2nc(Nc3ccc(-c4cnco4)cc3)nc(N(CCO)c3ccccc3)c2C1 [Example 15, 1-(4-((2-Hydroxyethyl)(phenyl)amino)-2-(4-(oxazol-5-yl)phenylamino)-7,8-dihydropyrido[4,3-d]pyrimidin-6(5H)-yl)propan-1-one]
23 | 0.02 | COc1cc(Nc2nc3c(c(COC4CCCC4)n2)COCC3)ccc1-n1cnc(C)c1 [Example 109, 4-(Cyclopentyloxymethyl)-N-(3-methoxy-4-(4-methyl-1H-imidazol-1-yl)phenyl)-7,8-dihydro-5H-pyrano[4,3-d]pyrimidin-2-amine]
